System: Lactobacillus plantarum - clinical strain
Test: Determination of the MIC value of totarol, broth dilution in 96-well plates with OD and quantitative culture
Format: cell-based
Conditions: for OD, average of 3 measurements / OD: 620 nm
Protocol: Test of antibacterial activity of totarol using DMI (dimethylisosorbide) as a solvent.
A suspension of 0.5 McF in physiological saline (suspension density 10^8 cfu/ml) was prepared from a 24-hour culture of a standard strain. 1 ml of the suspension was collected to 9 ml of a TSB broth ([…]). Suspensions with a dilution of 10^−6 were prepared in the described way. A suspension with a cell density of 10^5 cfu/ml was selected for further investigations. For each strain, 2 96-well plates were prepared: the first one was intended for the OD measurement, the second one—for quantitative culture on solid media. • A/ to wells B1-D1, B2-D2 and B-D 4-11, 100 µl of the broth were added; • B/ to wells B3-D3, 200 µl of the broth were added; • C/ to wells B1-D1, 1 µl of stock I was added; • D/ to wells B2-D2, 1 µl of stock II was added; • E/ to wells B3-D3, 2 µl of stock III were added. Using a multichannel pipette, 100 µl of the sample were collected from each of the B3-D3 wells and placed in wells B4-D4 (mixing by sucking the content in and letting it out for 5 times). The pipette tips were replaced and 100 µl of the content were collected from of the B4-D4 wells, and placed in wells B5-D5, mixing as previously. These operations were repeated through the wells B11-D11. The content in the B11-D11 wells was mixed, and 100 µl of the fluid were collected and discarded. This way, a series of dilutions of totarol samples in DMI in the range of 0.32% to 0.0004% was obtained. Then, 100 µl of a corresponding bacterial culture were added to the wells B, C, D 1-11. In consequence, a change in the final concentration range occurred, to 0.16%-0.0002%. Control Preparation: • Negative control: 100 µl of the broth+1 pl DMI were added to the Al well. • Positive control (I): 100 µl of the broth with the bacterial culture were added to the wells E1-G1. • Diluent positive control (II): 100 µl of the broth with the bacterial culture+1 pl DMI were added to the wells E2-G2. The OD value in the individual wells was read at the wavelength of 620 nm (read time 0). From the second 96-well plate, a culture was inoculated by a quantitative method from every dilution onto a well with a proper solid medium, and incubated for 24 h at 37° C. under aerobic or anaerobic conditions, depending on the strain. The plates were incubated under aerobic conditions or in an atmosphere of an elevated CO2 concentration (for the strains requiring it) in an incubator at 37° C. The OD was read after 8 h, 16 h, and 24 h, respectively. Before every OD measurement, the contents of the wells were mixed delicately. In parallel to the OD readout, cultures we inoculated from the second 96-well plate, from every dilution, into plates with a proper solid medium, and incubated for 24 h at 37° C., under aerobic or anaerobic conditions. For the analysis of the experimental results, an average value of the OD measurement obtained from three repetitions in the individual times (0, 8, 16, and 24 h) for the individual microbes (Gardnerella vaginalis, Streptococcus agalactiae, Enterococcus faecalis, Lactobacillus gasseri/plantarum) was taken. Additionally, the number of bacteria grown on solid media was taken into account. The results of the tests confirm the specific, concentration-dependent selectiveness, and the high antibacterial effectiveness of totarol against the pathogenic microorganisms: Gardnerella vaginalis, Streptococcus agalactiae, Enterococcus faecalis at low MIC values safe for bacteria of the Lactobacillus genus.

Structure (SMILES): CC(C)c1c(O)ccc2c1CC[C@H]1C(C)(C)CCC[C@]21C [Totarol, totarol]
- MIC value (L. plantarum): 0.08%
- viable count by quantitative culture (cfu/ml) (totarol 0.0002%, 0 h): 3.9 × 10^5 cfu/ml
- OD, average of 3 measurements (totarol 0.0002%, 0 h): 0.291
- viable count by quantitative culture (cfu/ml) (totarol 0.0002%, 8 h): 3.5 × 10^5 cfu/ml
- OD, average of 3 measurements (totarol 0.0002%, 8 h): 0.305
- viable count by quantitative culture (cfu/ml) (totarol 0.0002%, 16 h): 4.2 × 10^6 cfu/ml
- OD, average of 3 measurements (totarol 0.0002%, 16 h): 0.854
- viable count by quantitative culture (cfu/ml) (totarol 0.0002%, 24 h): 2.9 × 10^7 cfu/ml
- OD (totarol 0.0002%, 24 h): 1.469
- viable count by quantitative culture (cfu/ml) (totarol 0.0004%, 0 h): 2.1 × 10^5 cfu/ml
- OD, average of 3 measurements (totarol 0.0004%, 0 h): 0.304
- viable count by quantitative culture (cfu/ml) (totarol 0.0004%, 8 h): 2 × 10^5 cfu/ml
- OD, average of 3 measurements (totarol 0.0004%, 8 h): 0.309
- viable count by quantitative culture (cfu/ml) (totarol 0.0004%, 16 h): 3.9 × 10^6 cfu/ml
- OD, average of 3 measurements (totarol 0.0004%, 16 h): 0.892
- viable count by quantitative culture (cfu/ml) (totarol 0.0004%, 24 h): 3.1 × 10^7 cfu/ml
- OD (totarol 0.0004%, 24 h): 1.508
- viable count by quantitative culture (cfu/ml) (totarol 0.0007%, 0 h): 6.5 × 10^5 cfu/ml
- OD, average of 3 measurements (totarol 0.0007%, 0 h): 0.292
- viable count by quantitative culture (cfu/ml) (totarol 0.0007%, 8 h): 4.5 × 10^5 cfu/ml
- OD, average of 3 measurements (totarol 0.0007%, 8 h): 0.300
- viable count by quantitative culture (cfu/ml) (totarol 0.0007%, 16 h): 8.1 × 10^6 cfu/ml
- OD, average of 3 measurements (totarol 0.0007%, 16 h): 0.902
- viable count by quantitative culture (cfu/ml) (totarol 0.0007%, 24 h): 5.1 × 10^7 cfu/ml
- OD (totarol 0.0007%, 24 h): 1.504
- viable count by quantitative culture (cfu/ml) (totarol 0.0013%, 0 h): 3.8 × 10^5 cfu/ml
- OD, average of 3 measurements (totarol 0.0013%, 0 h): 0.293
- viable count by quantitative culture (cfu/ml) (totarol 0.0013%, 8 h): 3.2 × 10^5 cfu/ml
- OD, average of 3 measurements (totarol 0.0013%, 8 h): 0.305
- viable count by quantitative culture (cfu/ml) (totarol 0.0013%, 16 h): 5.1 × 10^6 cfu/ml
- OD, average of 3 measurements (totarol 0.0013%, 16 h): 0.913
- viable count by quantitative culture (cfu/ml) (totarol 0.0013%, 24 h): 4.1 × 10^7 cfu/ml
- OD (totarol 0.0013%, 24 h): 1.521
- viable count by quantitative culture (cfu/ml) (totarol 0.0025%, 0 h): 2.8 × 10^5 cfu/ml
- OD, average of 3 measurements (totarol 0.0025%, 0 h): 0.284
- viable count by quantitative culture (cfu/ml) (totarol 0.0025%, 8 h): 1.0 × 10^5 cfu/ml
- OD, average of 3 measurements (totarol 0.0025%, 8 h): 0.303
- viable count by quantitative culture (cfu/ml) (totarol 0.0025%, 16 h): 8.4 × 10^6 cfu/ml
- OD, average of 3 measurements (totarol 0.0025%, 16 h): 0.914
- viable count by quantitative culture (cfu/ml) (totarol 0.0025%, 24 h): 1.4 × 10^7 cfu/ml
- OD (totarol 0.0025%, 24 h): 1.552
- viable count by quantitative culture (cfu/ml) (totarol 0.005%, 0 h): 4.2 × 10^5 cfu/ml
- OD, average of 3 measurements (totarol 0.005%, 0 h): 0.288
- viable count by quantitative culture (cfu/ml) (totarol 0.005%, 8 h): 1.2 × 10^5 cfu/ml
- OD, average of 3 measurements (totarol 0.005%, 8 h): 0.300
- viable count by quantitative culture (cfu/ml) (totarol 0.005%, 16 h): 1.8 × 10^6 cfu/ml
- OD, average of 3 measurements (totarol 0.005%, 16 h): 0.895
- viable count by quantitative culture (cfu/ml) (totarol 0.005%, 24 h): 3.8 × 10^7 cfu/ml
- OD (totarol 0.005%, 24 h): 1.476
- viable count by quantitative culture (cfu/ml) (totarol 0.01%, 0 h): 5.5 × 10^5 cfu/ml
- OD, average of 3 measurements (totarol 0.01%, 0 h): 0.295
- viable count by quantitative culture (cfu/ml) (totarol 0.01%, 8 h): 5 × 10^5 cfu/ml
- OD, average of 3 measurements (totarol 0.01%, 8 h): 0.298
- viable count by quantitative culture (cfu/ml) (totarol 0.01%, 16 h): 6.4 × 10^6 cfu/ml
- OD, average of 3 measurements (totarol 0.01%, 16 h): 0.871
- viable count by quantitative culture (cfu/ml) (totarol 0.01%, 24 h): 3.4 × 10^7 cfu/ml
- OD (totarol 0.01%, 24 h): 1.445
- viable count by quantitative culture (cfu/ml) (totarol 0.02%, 0 h): 7.5 × 10^5 cfu/ml
- OD, average of 3 measurements (totarol 0.02%, 0 h): 0.330
- viable count by quantitative culture (cfu/ml) (totarol 0.02%, 8 h): 1.0 × 10^5 cfu/ml
- OD, average of 3 measurements (totarol 0.02%, 8 h): 0.299
- viable count by quantitative culture (cfu/ml) (totarol 0.02%, 16 h): 5.1 × 10^6 cfu/ml
- OD, average of 3 measurements (totarol 0.02%, 16 h): 0.837
- viable count by quantitative culture (cfu/ml) (totarol 0.02%, 24 h): 3.1 × 10^7 cfu/ml
- OD (totarol 0.02%, 24 h): 1.375
- viable count by quantitative culture (cfu/ml) (totarol 0.04%, 0 h): 2.6 × 10^5 cfu/ml
- OD, average of 3 measurements (totarol 0.04%, 0 h): 0.398
- viable count by quantitative culture (cfu/ml) (totarol 0.04%, 8 h): 1.6 × 10^5 cfu/ml
- OD, average of 3 measurements (totarol 0.04%, 8 h): 0.370
- viable count by quantitative culture (cfu/ml) (totarol 0.04%, 16 h): 2.4 × 10^5 cfu/ml
- OD, average of 3 measurements (totarol 0.04%, 16 h): 0.379
- viable count by quantitative culture (cfu/ml) (totarol 0.04%, 24 h): 2.4 × 10^5 cfu/ml
- OD (totarol 0.04%, 24 h): 0.397
- viable count by quantitative culture (cfu/ml) (totarol 0.08%, 0 h): 3.2 × 10^5 cfu/ml
- OD, average of 3 measurements (totarol 0.08%, 0 h): 0.401
- viable count by quantitative culture (cfu/ml) (totarol 0.08%, 8 h): 1.2 × 10^4 cfu/ml
- OD, average of 3 measurements (totarol 0.08%, 8 h): 0.413
- viable count by quantitative culture (cfu/ml) (totarol 0.08%, 16 h): 3.5 × 10^4 cfu/ml
- OD, average of 3 measurements (totarol 0.08%, 16 h): 0.368
- viable count by quantitative culture (cfu/ml) (totarol 0.08%, 24 h): 5 × 10^4 cfu/ml
- OD (totarol 0.08%, 24 h): 0.357
- viable count by quantitative culture (cfu/ml) (totarol 0.16%, 0 h): 3.7 × 10^5 cfu/ml
- OD, average of 3 measurements (totarol 0.16%, 0 h): 0.472
- viable count by quantitative culture (cfu/ml) (totarol 0.16%, 8 h): 4 × 10^4 cfu/ml
- OD, average of 3 measurements (totarol 0.16%, 8 h): 0.320
- viable count by quantitative culture (cfu/ml) (totarol 0.16%, 16 h): 7.1 × 10^4 cfu/ml
- OD, average of 3 measurements (totarol 0.16%, 16 h): 0.346
- viable count by quantitative culture (cfu/ml) (totarol 0.16%, 24 h): 4.1 × 10^4 cfu/ml
- OD (totarol 0.16%, 24 h): 0.371

— patent US11534412B2, “Application of totarol and pharmaceutical composition containing totarol” (Emergopharm SP. Z O.O. SP.K., priority 2017, dated 2022)
